≈ marks a conversion by molar mass, not a printed value.
System: Z. mobilis 8b
Assay: Furfural MIC for growth of Z. mobilis (plate screening levels given as MIC multiples)
Format: cell-based
Settings: Zymomonas mobilis, 24 h, read-out: MIC 1× (minimum concentration of inhibitor needed for complete inhibition of growth)
Description: Both Z. mobilis 8b and 8b knockout library cultures were revived from glycerol stocks in 20 mL MRMG0.75×0.25 (10 g/L yeast extract, 2 g/L KH2PO4 and 1 g/L MgSO4.7H2O, 7.5 g/L glucose and 2.5 g/L xylose) and also containing […] spectinomycin for 1.5 hours at 35° C., 125 rpm. Cells were centrifuged and resuspended to a final OD600 nm of 0.025 in a 100 mL culture, and grown for an additional 3-4 generations at 35° C. in 125 mL Erlenmeyer flasks with foam enclosures, 125 rpm (about 6 hours). Cells were initially screened on MRMGS (5% w/v glucose) plates containing 0, […], 5, or 7.5 g/L of furfural, equivalent to MICs of 0.75×, 1× or 1.5×. MIC 1× is the minimum (lowest) concentration of inhibitor needed for complete inhibition of growth (RMG2) over a 24-hour period. Approximately 500, 1000 and 2000 colonies were plated in triplicates. Furfural levels were also tested at 0.7, 1.5, 3 or 4 g/L in glucose.

O=Cc1ccco1 [furfural]
MIC: 5000 µg/mL (≈ 52 mM)

Source: US9206445B2, “Biocatalysts with enhanced inhibitor tolerance” (priority 2013, dated 2015)
